In series [1] the test system is Bovine viral diarrhea virus 1. In words: Antiviral activity against BVDV bearing mutant RdRp infected in […] cells assessed as inhibition of virus-induced cytopathogenicity by MTT assay. Type of series: functional, organism-based. As to conditions: Bovine viral diarrhea virus isolates and strains. (Cytopathic effects are the visible damage that an infection or toxin causes in cultured cells.)

Series [2] can be described thus: Inhibition of hepatitis C virus RNA dependent NS5B polymerase. Details: species or system Hepacivirus hominis.
Series [3] in a line: Inhibition of BVDV RNA dependent NS5B polymerase. Also noted: species or system Bovine viral diarrhea virus 1.
The test system of series [4] is Bovine viral diarrhea virus 1. In words: Antiviral activity against BVDV infected in […] cells assessed as inhibition of virus-induced cytopathogenicity by MTT assay. It is filed as functional, organism-based. Particulars: Bovine viral diarrhea virus isolates and strains.
Series [5] can be described thus: Cytotoxicity against […] cells by MTT assay. It is filed as cell-based.
Series [6] is described as follows: Selectivity index, ratio of CC50 for […] cells to EC50 for BVDV.

As to `CN1C=C(/N=N/c2cccc3ccccc23)CCC1`, the EC50 – broadly, the concentration at which the effect is half-maximal – in series [1] was above 100 µM; in series [4], 5 µM. For the same compound, the 50% inhibitory concentration (IC50) (in general, the concentration at which inhibition is half-maximal) in series [2] was 55 µM; in series [3], 28 µM. Moreover, the CC50 (in general, the concentration at which the toxic effect on the cells reaches its halfway point) in series [5] was above 100 µM. Turning to `CN1C=C(/N=N/c2ccc([N+](=O)[O-])cc2)CCC1`, the concentration giving a half-maximal response (EC50) in series [4] was found to be 11 µM. Take `Cc1ccc(/N=N/C=C2\CCCN2C)cc1`: the concentration for a half-maximal effect (EC50) in series [4] is 20 µM. For `FC(F)(F)c1cc(/N=N/C2=C3CCCCN3CCC2)cc(C(F)(F)F)c1`, the 50% effective concentration (EC50) in series [4] is above 31 µM.

With `O=[N+]([O-])c1cc(/N=N/C2=C3CCCCN3CCC2)ccc1Cl`, in series [4], the EC50 was above 18 µM. Consider `Clc1ccc(/N=N/C2=C3CCCN3CCC2)cc1Cl`, for which, in series [4], the EC50 is above 67 µM. Take `COc1ccc(/N=N/C=C2\CCCN2C)cc1`: the concentration giving a half-maximal response (EC50) in series [4] was 18 µM. As to `CN1CCC/C1=C\N=N\c1cccc([N+](=O)[O-])c1`, the EC50 in series [4] is 5.5 µM. In the case of `CC(=O)Nc1ccc(-c2nc3cc(Cl)c(Cl)cc3[nH]2)cc1`, the EC50 in series [1] was above 100 µM; in series [4], 1 µM. The midpoint of cytotoxicity in series [5], the CC50, lay at 58 µM. Consider `Clc1ccccc1/N=N/C1=C2CCCCN2CCC1`, for which the concentration giving a half-maximal response (EC50) in series [4] is above 100 µM.

Regarding `CN1C=C(/N=N/c2ccc(Br)c(C(F)(F)F)c2)CCC1`, the EC50 in series [4] was 40 µM. Same read-out and setting: with `CN1CCC/C1=C\N=N\c1ccc([N+](=O)[O-])cc1` the figure was 19 µM; with `C(/N=N/c1ccccc1)=C1/CCCN1Cc1ccccc1`, above 74 µM. Regarding `Cc1ccc(/N=N/C2=CN(C)CCC2)cc1`, the EC50 in series [4] is above 100 µM. Consider `Clc1cccc(/N=N/C2=C3CCCCN3CCC2)c1`, for which, in series [4], the 50% effective concentration (EC50) is above 20 µM. For `O=[N+]([O-])c1ccc(/N=N/C2=C3CCCCN3CCC2)cc1`, the EC50 in series [4] was 86 µM. `CN1C=C(/N=N/c2cccc(C(F)(F)F)c2)CCC1`: the EC50 in series [4] was determined as 90 µM.

For the compound `C[C@@]1(O)[C@H](O)[C@@H](CO)O[C@H]1n1cnc2c(=O)[nH]c(N)nc21` [2'-B-METHYL-GUANOSINE], the 50% effective concentration (EC50) in series [4] was 1.7 µM.

With `CN1C=C(/N=N/c2ccc(Cl)cc2)CCC1`, the 50% effective concentration (EC50) in series [4] was above 58 µM. In the case of `CC(=O)Nc1ccc(-c2nc3cc([N+](=O)[O-])ccc3[nH]2)cc1`, the half-maximal effective concentration (EC50) in series [1] is above 100 µM; in series [4], 0.8 µM. Moreover, in series [5], the cytotoxic concentration (CC50) is above 100 µM.

In the case of `Nc1ccc(-c2nc3cc([N+](=O)[O-])ccc3[nH]2)cc1`, the 50% effective concentration (EC50) in series [1] was above 79 µM; in series [4], 1.5 µM. This compound showed a CC50 in series [5] of 79 µM.

For `CN1CCC/C1=C\N=N\c1ccc(F)c(C(F)(F)F)c1`, the 50% effective concentration (EC50) in series [4] was determined as 100 µM.

Consider `Brc1cccc(/N=N/C2=C3CCCCN3CCC2)c1`, for which the EC50 in series [4] was above 10 µM. Regarding `Clc1ccc(/N=N/C=C2\CCCN2Cc2ccccc2)cc1Cl`, the EC50 in series [4] was above 79 µM. `Clc1ccc(/N=N/C=C2\CCCN2Cc2ccccc2)cc1`: in series [4], the 50% effective concentration (EC50) is above 18 µM. In the case of `CN1C=C(/N=N/c2ccc(Cl)c([N+](=O)[O-])c2)CCC1`, in series [4], the 50% effective concentration (EC50) was above 61 µM.

`Brc1ccc(/N=N/C2=C3CCCCN3CCC2)cc1`: the EC50 in series [4] is above 59 µM. On to `FC(F)(F)c1cc(/N=N/C2=C3CCCCN3CCC2)ccc1Br`, for which, in series [4], the EC50 worked out at 61 µM. On the same count and under the same terms, the same measure for `Clc1ccc(/N=N/C2=C3CCCCN3CCC2)cc1`: above 60 µM; for `CN1CCC/C1=C\N=N\c1cccc(C(F)(F)F)c1`: 21 µM; for `Fc1ccc(/N=N/C2=C3CCCCN3CCC2)cc1C(F)(F)F`: above 100 µM. In the case of `Clc1ccc(/N=N/C2=C3CCCN3CCC2)cc1`, the EC50 in series [4] was above 30 µM.

Take `CN1C=C(/N=N/c2ccc(F)cc2)CCC1`: the EC50 in series [4] is above 48 µM. For the compound `Clc1ccc(/N=N/C2=C3CCCCN3CCC2)cc1Cl`, in series [4], the half-maximal effective concentration (EC50) was above 30 µM. As for `CN1C=C(/N=N/c2ccccc2)CCC1`, the EC50 in series [4] was above 100 µM. On to `CN1C=C(/N=N/c2cccc(Cl)c2)CCC1`, for which, in series [4], the EC50 came to 12 µM. In the case of `c1ccc2c(/N=N/C3=C4CCCCN4CCC3)cccc2c1`, the EC50 in series [4] was 6 µM. On to `CN1C=C(/N=N/c2ccccc2Cl)CCC1`, for which, in series [4], the EC50 worked out at 100 µM. Still for that read-out and setting: the same measure for `CN1CCC/C1=C\N=N\c1ccc(Cl)c(Cl)c1`: 16 µM. On the same count and under the same terms, the same measure for `CN1CCC/C1=C\N=N\c1c(F)c(F)c(F)c(F)c1F`: above 100 µM; for `CN1CCC/C1=C\N=N\c1cccc(Br)c1`: 9 µM.

Take `CN1C=C(/N=N/c2ccc(F)c(C(F)(F)F)c2)CCC1`: the EC50 in series [4] was above 100 µM. For `O=[N+]([O-])c1cccc(/N=N/C2=C3CCCN3CCC2)c1`, the 50% effective concentration (EC50) in series [4] was above 68 µM. The same measure, in the same setting: the same measure for `FC(F)(F)c1cc(/N=N/C2=C3CCCN3CCC2)ccc1Cl`: above 21 µM; for `CN1CCC/C1=C\N=N\c1ccc(F)cc1`: 18 µM; for `Fc1ccc(/N=N/C2=C3CCCCN3CCC2)cc1`: above 56 µM. As to `CN1CCC/C1=C\N=N\c1cc(C(F)(F)F)cc(C(F)(F)F)c1`, the concentration giving a half-maximal response (EC50) in series [4] was above 36 µM. In the case of `CN1C=C(/N=N/c2ccc(Cl)c(Cl)c2)CCC1`, the concentration for a half-maximal effect (EC50) in series [4] was 7 µM.

For the compound `FC(F)(F)c1cc(/N=N/C=C2\CCCN2Cc2ccccc2)ccc1Cl`, the concentration giving a half-maximal response (EC50) in series [4] was above 14 µM. For `CN1CCC/C1=C\N=N\c1ccc(Br)cc1`, the EC50 in series [4] is 11 µM.

In the case of `CN1C=C(/N=N/c2ccc(Cl)c(C(F)(F)F)c2)CCC1`, in series [4], the EC50 was above 28 µM.

As for `CN1C=C(/N=N/c2cccc([N+](=O)[O-])c2)CCC1`, in series [6], the “Ratio CC50/EC50” value turned out to be 125. Besides, the IC50 was determined as 30 µM in series [2] and 32 µM in series [3]. Also, the EC50 in series [4] came out at 0.8 µM. The CC50 in series [5] is above 100 µM. Take `CN1CCC/C1=C\N=N\c1ccc(Cl)cc1`: the EC50 in series [4] turned out to be 21 µM. With `CN1C=C(/N=N/c2cccc(Br)c2)CCC1`, the concentration giving a half-maximal response (EC50) in series [4] came out at 19 µM. On the same count and under the same terms, with `FC(F)(F)c1cccc(/N=N/C2=C3CCCCN3CCC2)c1` the figure was above 8 µM; with `Cc1ccc(/N=N/C=C2\CCCN2Cc2ccccc2)cc1`, above 22 µM.

For the compound `O=[N+]([O-])c1cccc(/N=N/C2=C3CCCCN3CCC2)c1`, the EC50 in series [4] was above 100 µM. Turning to `c1ccc2c(/N=N/C3=C4CCCN4CCC3)cccc2c1`, in series [4], the concentration for a half-maximal effect (EC50) stood at 3.5 µM. With `CN1CCC/C1=C\N=N\c1ccc(Br)c(C(F)(F)F)c1`, the 50% effective concentration (EC50) in series [4] was found to be 46 µM. Turning to `CN1CCC/C1=C\N=N\c1ccccc1`, in series [4], the concentration for a half-maximal effect (EC50) was found to be 10 µM. With `FC(F)(F)c1cc(/N=N/C2=C3CCCCN3CCC2)ccc1Cl`, the EC50 in series [4] is above 35 µM. Turning to `CN1C=C(/N=N/c2c(F)c(F)c(F)c(F)c2F)CCC1`, the EC50 in series [4] is above 100 µM. On to `c1ccc2c(/N=N/C3=C4CCCN4CCC3)nncc2c1`, for which, in series [4], the 50% effective concentration (EC50) was above 100 µM. As to `CN1C=C(/N=N/c2cc(C(F)(F)F)cc(C(F)(F)F)c2)CCC1`, the EC50 in series [4] was above 64 µM. Regarding `CN1C=C(/N=N/c2ccc(Br)cc2)CCC1`, the half-maximal effective concentration (EC50) in series [4] amounted to 60 µM.

(Values after ChEMBL document CHEMBL1212868, “Synergistic experimental/computational studies on arylazoenamine derivatives that target the bovine viral diarrhea virus RNA-dependent RNA polymerase” (Bioorg Med Chem, 2010).)
